Values after ≈ are worked out from the molar mass of the structure shown.
Columns and labels:
S. aureus ST398 [1] = assay: Vitek 2 drug sensitivity test; type: cell-based, Staphylococcus aureus; for Sensibility: key: S: Drug sensitive; R: Drug resistance
E. faecium Ef28 [2] = assay: FaAST (FDAA metabolic labeling method); type: cell-based, Enterococcus faecium; details: unit assumed
Procedure: Take the colony to be tested that has been cultured overnight on the plate and fully mix it in normal saline to make a uniform bacterial solution. Dilute it into Cation-Adjusted Mueller Hinton Broth (CAMHB) culture medium to make a bacterial solution with OD600=0.05. • 2. Add 45 μl antibiotic solutions of different concentrations to 96-well plates (see Table 1 for antibiotic concentration gradient settings). • 3. Add 50 μl of the bacterial solution prepared in step 1 to the 96-well plate and mix well. • 4. Add 5 μl of 10 mM Cy5-DAA probe (final concentration 0.15 mM, see FIG. 1 for its structure) into each well, mix well, and cultivate in dark for 2 hours. • 5. Add 200 μl After PBS solution is diluted, the fluorescence intensity of each sample is detected by flow cytometry. […] The MIC (minimum inhibitory concentration) can be obtained by referring to this curve.

E. faecalis ATCC29212 [3] = assay: FaAST (FDAA metabolic labeling method); type: cell-based, Enterococcus faecalis; details: unit assumed
Procedure: (§1) Take the colony to be tested that has been cultured overnight on the plate and fully mix it in normal saline to make a uniform bacterial solution. Dilute it into Cation-Adjusted Mueller Hinton Broth (CAMHB) culture medium to make a bacterial solution with OD600=0.05. • 2. Add 45 μl antibiotic solutions of different concentrations to 96-well plates (see Table 1 for antibiotic concentration gradient settings). • 3. Add 50 μl of the bacterial solution prepared in step 1 to the 96-well plate and mix well. • 4. Add 5 μl of 10 mM Cy5-DAA probe (final concentration 0.15 mM, see FIG. 1 for its structure) into each well, mix well, and cultivate in dark for 2 hours. • 5. Add 200 μl After PBS solution is diluted, the fluorescence intensity of each sample is detected by flow cytometry. The flow detection results are shown in FIG. 4-5, showing the curve of the change of antibiotic concentration gradient and fluorescence intensity. The MIC (minimum inhibitory concentration) can be obtained by referring to this curve.
(§2) Bacteria with antibiotic resistance are shown in bold in the following table.

S. aureus ATCC29213 [4] = details: cited from earlier work
S. aureus Sa22 [5] = assay: BMD susceptibility test; type: cell-based, Staphylococcus aureus; details: unit assumed
S. aureus ATCC29213 [6] = assay: FaAST (FDAA metabolic labeling method); type: cell-based, Staphylococcus aureus; details: unit assumed
Procedure: as §1, §2

S. aureus Sa23 [7] = assay: FaAST (FDAA metabolic labeling method); type: cell-based, Staphylococcus aureus; details: unit assumed
Procedure: as §1, §2

S. aureus Sa22 [8] = assay: FaAST (FDAA metabolic labeling method); type: cell-based, Staphylococcus aureus; details: unit assumed
Procedure: as §1, §2

E. faecalis ATCC29212 [9] = assay: BMD susceptibility test; type: cell-based, Enterococcus faecalis; details: unit assumed
E. faecalis ATCC29212 [10] = details: cited from earlier work
E. faecium Ef26 [11] = assay: FaAST (FDAA metabolic labeling method); type: cell-based, Enterococcus faecium; details: unit assumed
Procedure: as §1, §2

S. aureus ST59 [12] = assay: Vitek 2 drug sensitivity test; type: cell-based, Staphylococcus aureus; for Sensibility: key: S: Drug sensitive; R: Drug resistance
S. aureus ATCC29213 [13] = assay: BMD susceptibility test; type: cell-based, Staphylococcus aureus; details: unit assumed
E. faecium Ef26 [14] = assay: BMD susceptibility test; type: cell-based, Enterococcus faecium; details: unit assumed
S. aureus Sa23 [15] = assay: BMD susceptibility test; type: cell-based, Staphylococcus aureus; details: unit assumed
S. aureus ST5 [16] = assay: FDAA metabolic labeling susceptibility test (Cy5-DAA probe, flow cytometry); type: cell-based; details: Staphylococcus aureus, ST5, 2 h, read-out: MIC, FDAA
Procedure: as §1

S. aureus ST59 [17] = assay: as above; type: cell-based; details: Staphylococcus aureus, ST59, 2 h, read-out: MIC, FDAA
Procedure: as §1

S. aureus ST398 [18] = assay: as above; type: cell-based; details: Staphylococcus aureus, ST398, 2 h, read-out: MIC, FDAA
Procedure: as §1

S. aureus ST5 [19] = assay: Vitek 2 drug sensitivity test; type: cell-based, Staphylococcus aureus; for Sensibility: key: S: Drug sensitive; R: Drug resistance
E. faecium Ef28 [20] = assay: BMD susceptibility test; type: cell-based, Enterococcus faecium; details: unit assumed

Compound	FaAST (MIC) (E. faecium Ef28 [2]) [µg/mL]	FaAST (MIC) (E. faecalis ATCC29212 [3]) [µg/mL]	CLSI QC range (S. aureus ATCC29213 [4])	BMD (MIC) (S. aureus Sa22 [5]) [µg/mL]	FaAST (MIC) (S. aureus ATCC29213 [6]) [µg/mL]	FaAST (MIC) (S. aureus Sa23 [7]) [µg/mL]	FaAST (MIC) (S. aureus Sa22 [8]) [µg/mL]	BMD (MIC) (E. faecalis ATCC29212 [9]) [µg/mL]	CLSI QC range (E. faecalis ATCC29212 [10])	FaAST (MIC) (E. faecium Ef26 [11]) [µg/mL]	BMD (MIC) (S. aureus ATCC29213 [13]) [µg/mL]	BMD (MIC) (E. faecium Ef26 [14]) [µg/mL]	BMD (MIC) (S. aureus Sa23 [15]) [µg/mL]	also measured
CN[C@H](CC(C)C)C(=O)N[C@H]1C(=O)N[C@@H](CC(N)=O)C(=O)N[C@H]2C(=O)N[C@H]3C(=O)N[C@H](C(=O)N[C@H](C(=O)O)c4cc(O)cc(O)c4-c4cc3ccc4O)[C@H](O)c3ccc(c(Cl)c3)Oc3cc2cc(c3O[C@@H]2O[C@H](CO)[C@@H](O)[C@H](O)[C@H]2O[C@H]2C[C@](C)(N)[C@H](O)[C@H](C)O2)Oc2ccc(cc2Cl)[C@H]1O [Vancomycin, vancomycin]	32	2	0.5-2	1	1	2	2	2	1-4	0.25	1	0.5	1	Sensibility (S. aureus ST398 [1]): S; MIC (S. aureus ST398 [1]; Staphylococcus aureus): ≤ 0.5 µg/mL; Sensibility (S. aureus ST59 [12]): S; MIC (S. aureus ST59 [12]; Staphylococcus aureus): 1 µg/mL (≈ 0.69 µM); MIC (S. aureus ST5 [16]): 4 µg/mL (≈ 2.76 µM); MIC (S. aureus ST59 [17]): 2 µg/mL (≈ 1.38 µM); MIC (S. aureus ST398 [18]): 2 µg/mL (≈ 1.38 µM); Sensibility (S. aureus ST5 [19]): S; MIC (S. aureus ST5 [19]; Staphylococcus aureus): 1 µg/mL (≈ 0.69 µM)
teicoplanin	32	0.5	0.25-1^	0.5	0.25	1	1	≤ 0.25	0.25-1	0.25	≤ 0.25	0.5	0.5	BMD (MIC) (E. faecium Ef28 [20]): 16 µg/mL

— patent US20240240224A1, “FLUORESCENT D-TYPE AMINO ACID METABOLISM MARKER-BASED METHOD FOR DETECTING ANTIBACTERIAL DRUG SENSITIVITY TEST” (priority 2020, published 2024)
